In patent US10119168B2, “Methods for the treatment of kidney fibrosis” (priority 2014, dated 2018):

System: mouse kidney
Assay: RNA-seq of kidney gene expression over time in FA nephropathy progression (Table 1)
Type: in vivo
Description: Identification of Candidate Genes for Biomarkers of Kidney Fibrosis Through RNA-Seq. […] To select genes that are indicative of fibrosis candidates were considered from this later group that had robust upregulation (>5-fold with >100 read counts at peak) over time as fibrosis progresses. Another important criteria was the location of the protein product of the gene, either in extracellular matrix or transmembrane, to increase the chance of detecting it in the urine and use it as a biomarker(11).
(§1) RNA samples (n=3 mice/time point) were sequenced at the Bioplymers Facility at the Harvard Medical School. Libraries were prepared from 10 ng total RNA per sample using the IntegenX Apollo 324 system and NuGEN SPIA reagents. Libraries were multiplexed in groups of three per lane of a flowcell and 50 cycle, paired-end sequencing was performed on an Illumina HiSeq2000 instrument. Illumina sequence quality was surveyed with FastQC (available on the world wide web at bioinformatics.babraham.ac.uk/projects/fastqc/) to ensure suitability of library generation and sequencing for further analysis. Adapters and lower quality bases were trimmed with Cutadapt (available on the world wide web at code.google.com/p/cutadapt/), using a Phred quality cutoff of 20, and reassessed with FastQC. Trimmed reads were aligned to the Ensembl NCBIM37 Mus musculus genome build with TopHat2. Aligned reads were summarized at the gene level against the Illumina iGenomes (available on the world wide web at tophat.cbcb.umd.edu/igenomes.html) NCBIM37 Mus musculus gene annotations using HTSeq (available on the world wide web at huber.embl.de/users/anders/HTSeq/doc/overview.html). […] The full dataset is available in the NCBI GEO database with the accession number GSE65267. Raw data is accessible on the world wide web at ncbi.nlm.nih.gov/geo/query/acc.cgi?acc=GSE65267.
Mice were sacrificed at 1, 2, 3, 7 and 14 days following administration. […] All mice were sacrificed at 14 days.
as §1, with “The quantity and quality of mRNA” for “RNA samples (n=3 mice/time point)”, “assayed on an Agilent 2200 TapeStation instrument and by SYBR qPCR assay.” for “sequenced at the Bioplymers Facility at the Harvard Medical School.”, “(https://code.google.com/p/cutadapt/),” for “(available on the world wide web at code.google.com/p/cutadapt/),”

## Nc1nc2ncc(CNc3ccc(C(=O)N[C@@H](CCC(=O)O)C(=O)O)cc3)nc2c(=O)[nH]1 [FA, folic acid]
Day 3
  Sycn mean fold change from normal: 0.07 fold
  Synpr mean fold change from normal: 0.01 fold
  Sytl2 mean fold change from normal: 8.20 fold
  Tagln2 mean fold change from normal: 4.86 fold
  Tbx10 mean fold change from normal: 0.08 fold
  Timd2 mean fold change from normal: 1.47 fold
  Timp1 mean fold change from normal: 60.56 fold
  Tlr2 mean fold change from normal: 34.62 fold
  Tmem25 mean fold change from normal: 0.39 fold
  Tmem26 mean fold change from normal: 0.16 fold
  Tmem207 mean fold change from normal: 0.14 fold
  Tmsb10 mean fold change from normal: 9.84 fold
  Tnc mean fold change from normal: 9.00 fold
  Tnfaip3 mean fold change from normal: 6.38 fold
  Tnfrsf23 mean fold change from normal: 5.65 fold
  Top2a mean fold change from normal: 10.49 fold
  Tpx2 mean fold change from normal: 7.65 fold
  Tril mean fold change from normal: 0.69 fold
  Tsc22d1 mean fold change from normal: 4.34 fold
  Ttc36 mean fold change from normal: 0.34 fold
  Ttr mean fold change from normal: 0.15 fold
  Tyrobp mean fold change from normal: 4.90 fold
  Ugt3a1 mean fold change from normal: 0.17 fold
  Uhrf1 mean fold change from normal: 12.11 fold
  Upp2 mean fold change from normal: 0.21 fold
  Vcam1 mean fold change from normal: 121.91 fold
  Vill mean fold change from normal: 0.18 fold
  Vmn1r18 mean fold change from normal: 0.14 fold
  Vmn1r19 mean fold change from normal: 0.52 fold
  Vmn1r20 mean fold change from normal: 0.31 fold
  Vmn1r-ps11 mean fold change from normal: 0.73 fold
  Vstm2a mean fold change from normal: 0.04 fold
  Vtcn1 mean fold change from normal: 28.37 fold
  Vwce mean fold change from normal: 0.42 fold
  Wfdc15b mean fold change from normal: 0.06 fold
  Ybx2 mean fold change from normal: 0.18 fold
Day 7
  7SK RNA mean fold change from normal: 0.08 fold
  2310042D19Rik mean fold change from normal: 0.46 fold
  4930533I22Rik mean fold change from normal: 0.25 fold
  4933417A18Rik mean fold change from normal: 0.41 fold
  8430408G22Rik mean fold change from normal: 1.23 fold
  9030619P08Rik mean fold change from normal: 0.03 fold
  Slc2a5 mean fold change from normal: 0.25 fold
  Slc4a1 mean fold change from normal: 0.35 fold
  Slc5a4a mean fold change from normal: 0.17 fold
  Slc5a12 mean fold change from normal: 0.35 fold
  Slc6a12 mean fold change from normal: 0.12 fold
  Slc7a13 mean fold change from normal: 0.10 fold
  Slc28a1 mean fold change from normal: 0.44 fold
  Slc34a1 mean fold change from normal: 0.30 fold
  Slc34a2 mean fold change from normal: 7.02 fold
  Slc34a3 mean fold change from normal: 0.20 fold
  Slc46a3 mean fold change from normal: 0.31 fold
  Slco1a1 mean fold change from normal: 0.12 fold
  Smoc2 mean fold change from normal: 4.22 fold
  Smpdl3b mean fold change from normal: 38.83 fold
  Snx31 mean fold change from normal: 0.07 fold
  Socs1 mean fold change from normal: 34.95 fold
  Sox4 mean fold change from normal: 11.09 fold
  Sox9 mean fold change from normal: 30.72 fold
  Spaca7 mean fold change from normal: 30.89 fold
  Spink6 mean fold change from normal: 5.47 fold
  Spp1 mean fold change from normal: 37.70 fold
  Spred3 mean fold change from normal: 3.82 fold
  Spsb1 mean fold change from normal: 8.93 fold
  Spt1c3 mean fold change from normal: 1.25 fold
  St8sia2 mean fold change from normal: 26.47 fold
  Stil mean fold change from normal: 3.57 fold
  Stk32a mean fold change from normal: 2.72 fold
  Stra6 mean fold change from normal: 22.31 fold
  Susd2 mean fold change from normal: 0.28 fold
  Sycn mean fold change from normal: 0.07 fold
  Synpr mean fold change from normal: 0.01 fold
  Sytl2 mean fold change from normal: 11.81 fold
  Tagln2 mean fold change from normal: 4.01 fold
  Tbx10 mean fold change from normal: 0.03 fold
  Timd2 mean fold change from normal: 0.68 fold
  Timp1 mean fold change from normal: 67.32 fold
  Tlr2 mean fold change from normal: 15.78 fold
  Tmem25 mean fold change from normal: 0.53 fold
  Tmem26 mean fold change from normal: 0.16 fold
  Tmem207 mean fold change from normal: 0.35 fold
  Tmsb10 mean fold change from normal: 9.28 fold
  Tnc mean fold change from normal: 16.74 fold
  Tnfaip3 mean fold change from normal: 8.79 fold
  Tnfrsf23 mean fold change from normal: 2.21 fold
  Top2a mean fold change from normal: 5.58 fold
  Tpx2 mean fold change from normal: 2.93 fold
  Tril mean fold change from normal: 2.07 fold
  Tsc22d1 mean fold change from normal: 2.18 fold
  Ttc36 mean fold change from normal: 0.34 fold
  Ttr mean fold change from normal: 0.56 fold
  Tyrobp mean fold change from normal: 16.29 fold
  Ugt3a1 mean fold change from normal: 0.22 fold
  Uhrf1 mean fold change from normal: 3.81 fold
  Upp2 mean fold change from normal: 0.69 fold
  Vcam1 mean fold change from normal: 63.51 fold
  Vill mean fold change from normal: 0.20 fold
  Vmn1r18 mean fold change from normal: 0.27 fold
  Vmn1r19 mean fold change from normal: 0.73 fold
  Vmn1r20 mean fold change from normal: 0.27 fold
  Vmn1r-ps11 mean fold change from normal: 0.11 fold
  Vstm2a mean fold change from normal: 0.20 fold
  Vtcn1 mean fold change from normal: 15.70 fold
  Vwce mean fold change from normal: 1.03 fold
  Wfdc15b mean fold change from normal: 0.27 fold
  Ybx2 mean fold change from normal: 0.72 fold
Day 14
  7SK RNA mean fold change from normal: 1.35 fold
  2310042D19Rik mean fold change from normal: 0.95 fold
  4930533I22Rik mean fold change from normal: 0.74 fold
  4933417A18Rik mean fold change from normal: 0.67 fold
  8430408G22Rik mean fold change from normal: 0.79 fold
  9030619P08Rik mean fold change from normal: 0.25 fold
  Slc2a5 mean fold change from normal: 0.99 fold
  Slc4a1 mean fold change from normal: 0.92 fold
  Slc5a4a mean fold change from normal: 1.06 fold
  Slc5a12 mean fold change from normal: 0.58 fold
  Slc6a12 mean fold change from normal: 0.77 fold
  Slc7a13 mean fold change from normal: 0.48 fold
  Slc28a1 mean fold change from normal: 0.55 fold
  Slc34a1 mean fold change from normal: 0.58 fold
  Slc34a2 mean fold change from normal: 4.10 fold
  Slc34a3 mean fold change from normal: 0.33 fold
  Slc46a3 mean fold change from normal: 0.53 fold
  Slco1a1 mean fold change from normal: 0.36 fold
  Smoc2 mean fold change from normal: 6.08 fold
  Smpdl3b mean fold change from normal: 19.27 fold
  Snx31 mean fold change from normal: 0.27 fold
  Socs1 mean fold change from normal: 36.18 fold
  Sox4 mean fold change from normal: 7.60 fold
  Sox9 mean fold change from normal: 8.17 fold
  Spaca7 mean fold change from normal: 11.81 fold
  Spink6 mean fold change from normal: 1.77 fold
  Spp1 mean fold change from normal: 10.75 fold
  Spred3 mean fold change from normal: 5.60 fold
  Spsb1 mean fold change from normal: 4.14 fold
  Spt1c3 mean fold change from normal: 0.68 fold
  St8sia2 mean fold change from normal: 2.02 fold
  Stil mean fold change from normal: 0.95 fold
  Stk32a mean fold change from normal: 1.64 fold
  Stra6 mean fold change from normal: 14.59 fold
  Susd2 mean fold change from normal: 0.51 fold
  Sycn mean fold change from normal: 0.22 fold
  Synpr mean fold change from normal: 0.18 fold
  Sytl2 mean fold change from normal: 6.72 fold
  Tagln2 mean fold change from normal: 2.37 fold
  Tbx10 mean fold change from normal: 0.44 fold
  Timd2 mean fold change from normal: 0.67 fold
  Timp1 mean fold change from normal: 61.27 fold
  Tlr2 mean fold change from normal: 7.34 fold
  Tmem25 mean fold change from normal: 0.53 fold
  Tmem26 mean fold change from normal: 0.49 fold
  Tmem207 mean fold change from normal: 1.20 fold
  Tmsb10 mean fold change from normal: 5.31 fold
  Tnc mean fold change from normal: 18.78 fold
  Tnfaip3 mean fold change from normal: 3.95 fold
  Tnfrsf23 mean fold change from normal: 1.75 fold
  Top2a mean fold change from normal: 3.30 fold
  Tpx2 mean fold change from normal: 2.69 fold
  Tril mean fold change from normal: 0.97 fold
  Tsc22d1 mean fold change from normal: 2.00 fold
  Ttc36 mean fold change from normal: 0.67 fold
  Ttr mean fold change from normal: 0.78 fold
  Tyrobp mean fold change from normal: 10.29 fold
  Ugt3a1 mean fold change from normal: 0.46 fold
  Uhrf1 mean fold change from normal: 3.48 fold
  Upp2 mean fold change from normal: 1.34 fold
  Vcam1 mean fold change from normal: 36.46 fold
  Vill mean fold change from normal: 0.36 fold
  Vmn1r18 mean fold change from normal: 0.87 fold
  Vmn1r19 mean fold change from normal: 1.04 fold
  Vmn1r20 mean fold change from normal: 0.79 fold
  Vmn1r-ps11 mean fold change from normal: 0.51 fold
  Vstm2a mean fold change from normal: 0.60 fold
  Vtcn1 mean fold change from normal: 7.44 fold
  Vwce mean fold change from normal: 0.85 fold
  Wfdc15b mean fold change from normal: 0.90 fold
  Ybx2 mean fold change from normal: 0.44 fold
